Test results taken from patent US12502393B2, “Dual mode of action soluble guanylate cyclase activators and phosphodiesterase inhibitors and uses thereof” (TOPADUR PHARMA AG, priority 2018, dated 2025).
Where two headings read alike, the source gives them in different places.

Experiments:
[1] = biological target: T1, recombinant human (rh) PDE5A (Homo sapiens, UniProt O76074); experiment: Phosphodiesterase-5 activity assay (radiometric SPA); format: biochemical; details: rhPDE5A1, 0.5 μM cGMP, 20 min at 37° C.
T1 construct: GST; purchased SIGMA E9034

[2] = Human plasma protein binding; format: in vitro ADME; details: for fraction unbound: human
Experimental: An aliquot of 200 μL of human plasma containing test compound was spiked into donor well (red chamber) of the insert. 350 μL of PBS was spiked into receiver well (white chamber) of the insert.
The samples were matrix equilibrated with opposite matrix (25 μL of plasma/buffer sample was matched with 25 μL of blank buffer/plasma). Matrix matched samples were precipitated with 200 μL of acetonitrile containing internal standard. Samples were vortexed at 1000 rpm for 5 min and centrifuged at 4000 rpm for 10 min. Supernatant was separated, diluted 2 fold with water and analysed in LC-MS/MS. (Table 2).

[3] = system: Human Trabecular Meshwork Cells; experiment: Cellular cGMP assay in human trabecular meshwork cells; format: cell-based; details: 10 μM Riociguat; for Concentration (nM) for 3-fold or 2-fold* cGMP increase vs Baseline: 3-fold increase (values without asterisk); for Ratio Maximum cGMP increase vs Baseline: 5 mM GSH, incubation 2 h
[4] = system: Rat aortic smooth muscle cells; experiment: Cellular cGMP assay in rat aortic smooth muscle cells; format: cell-based; details: 10 μM Riociguat; for Ratio Maximum cGMP increase vs Baseline: 5 mM GSH, incubation 2 h
Experimental: Examples (Test compounds) were characterized for their potency and efficacy to elevate cGMP in cellular systems such as human trabecular meshwork cells (Table 3), human platelets (Table 5) and rat aortic smooth muscle cells (Table 4).
Human trabecular meshwork cells (ABC Biopply AG, Solothurn, Switzerland) or rat aortic smooth muscle cells (Sigma Aldrich AG, Buchs, Switzerland) were plated in a 96 well plate precoated with collagen (Collagen Type I solution from rat tail, Sigma; diluted to 0.1 mg/ml) at 20.000 cells per well and grown in corresponding Trabecular Meshwork (ABC Supply AG) or Smooth Muscle (Sigma AG) Growth medium as provided by the manufacturers. After 18 h medium was exchanged and new medium added supplemented with 5 mM GSH. The next day culture medium was exchanged to DMEM with low glucose supplemented with 5 mM GSH. Cells were pre-incubated with 10 μM Riociguat (soluble guanylate cyclase stimulator; Lucerna-Chem AG, Luzern, Switzerland) for 15 min before test or reference compounds or vehicle was added to a final incubation volume of 100 μl per well. At the end of the incubation time (see below) the reaction was terminated by adding HCl (0.16M), IBMX (Isobutylmethylxanthin) (2 mM) in DMSO (2%) to the culture medium, final concentrations per well are given in brackets. Following a 20 sec on a plate shaker (200 rpm) the plate was immediately frozen at −80° C.
(§1) cGMP was determined by a commercially available ELISA kit (Direct cGMP ELISA kit, Enzo Life Sciences AG, Lauren, Switzerland) with a lower detection limit of 0.08 pmol/ml using the acetylation protocol following manufacturer's instructions. Results are given as the means from at least two independent experiments each in triplicate.
(§2) To study concentration-dependent effects on total cGMP test and reference compounds were investigated from 0.1 nM to 1 μM in half-logarithmic steps with an incubation time of 2 h. To examine the time course the incubation times were (min) 10, 30, 60, 90, 120 at 1 μM of test or reference compound.
(§3) Compounds were diluted from stock solutions in DMSO. The final concentration of DMSO in all wells including the vehicle controls was 0.2% for human trabecular meshwork and rat aortic smooth muscle cells and 0.3% for platelets.
(§4) From time course experiments, the time to half of the maximum cGMP increase with 1 μM of test compound has been extrapolated (t0.5max).

Human Platelets = experiment: Total cGMP in human platelets; format: cell-based; details: for Ratio Maximum cGMP increase vs Baseline: 1 μM riociguat and 100 nM BAY 190954, incubation 2 h; for Concentration (nM) for 3-fold cGMP or 2-fold* increase vs Baseline: 3-fold increase (values without asterisk), 1 μM riociguat, 100 nM BAY 190954
Experimental: Effects of test and reference compounds on total cGMP in human platelets were investigated as described by Dunkern and Hatzelmann (Cell Signal. 17: 331-9, 2005) with modifications. Briefly, buffy coats (acquired form SRK Blutspende Zurich) were 4-fold diluted in 150 mM sodium chloride solution containing 0.9% sodium citrate and centrifuged at 200 g for 10 min. The resulting platelet-rich plasma was supplemented with a 1/10 volume of ACD solution (85 mM sodium citrate, 111 mM D-glucose, 71 mM citric acid, pH 4.4) and apyrase (Sigma AG) to a final concentration of 2 U/ml. After another centrifugation (1400 g, 10 min) the cellular pellet was resuspended in Ca2+/Mg2+-free Hepes-Tyrode buffer (134 mM NaCl, 12 mM NaHCO3, 2.9 mM KCl, 0.36 mM NaH2PO4, 5 mM HEPES, 5 mM glucose, 0.5% (w/v) bovine serum albumin, pH 7.4) and platelets were counted.
Platelets were used at 9×10^7 cells in 100 μl per well and after adding test and reference compounds the incubation volume was 200 μl per well in Hepes-Tyrode. Experiments in platelets were done in presence of 1 μM riociguat and 100 nM BAY 190954 (PDE2 inhibitor) (Lucerna Chem AG) and test/reference compounds were added after a preincubation time of 15 min. At the end of the incubation time (see below) the reaction was terminated by adding 20 μl of 2N HCl per well. Following a 20 sec on a plate shaker (300 rpm) the plate was left for 15 min and then centrifuged at 1000×g for 5 min. Supernatants were stored at −80° C.
as §1, §2, §3, §4

[5] = system: Human Pulmonary Artery Smooth Muscle Cells (hPASMC); experiment: cGMP in human pulmonary artery smooth muscle cells (hPASMC); format: cell-based; details: 30 min incubation, FIG. 4
Experimental: Human Pulmonary Artery Smooth Muscle Cells (hPASMC) were purchased from Clonetics™ Lonza (Lonza, reference number CC-2581) and cultured in Clonetics™ smooth muscle growth medium (Clonetics™ SmGM™-2 with BulletKit™ growth factor supplements (Lonza, reference number CC-3182) at 37° C. in 5% CO2. Culture medium was replaced each 48 hours. Cells were grown in 75 cm^2 culture plates.
48 h before the experiments, cells were trypsinized (Trypsin kit One ReagentPack™ (CC-5034), Lonza) and plated in 96 well plates precoated with collagen I at 10000 cells per well. 24 h before the experiments culture medium was replaced by serum-reduced (0.5% FBS) medium.
Measurements of intracellular cGMP were performed using the Amersham cGMP EIA System (GE Healthcare, RPN226) following the instructions of the manufacturer. The assay has a sensitivity of 2 fmol cGMP per well. Briefly, incubations were terminated by adding Amersham's lysis buffer 1 and cells left for 10 min under agitation to ensure complete lysis. cGMP in samples was then acetylated using triethylamine and acetic anhydride and determined by a competitive ELISA. The ELISA is based on the competition between acetylated cGMP in cell culture lysates and a peroxidase-labelled cGMP conjugate for limited binding sites on a cGMP specific antiserum immobilized on pre-coated 96 well MTP. cGMP was determined based on a standard curve. […]

[6] = read-out: % Unbound in human plasma

SMILES | IC50 [1] | fraction unbound ([2]; read-out: % Bound in human plasma (converted)) | fraction unbound [2, 6] | Concentration (nM) for 3-fold or 2-fold* cGMP increase vs Baseline ([3]; HTMC) | Ratio Maximum cGMP increase vs Baseline ([3]; HTMC) | Concentration (nM) for 3-fold cGMP increase vs Baseline [4] | Ratio Maximum cGMP increase vs Baseline [4] | Ratio Maximum cGMP increase vs Baseline (Human Platelets) | Concentration (nM) for 3-fold cGMP or 2-fold* increase vs Baseline (Human Platelets) | efficacy in increasing cGMP level as compared to the reference inhibitor vardenafil [5] | % Bound in human plasma [2] | effect to elevate cGMP in HTMC compared with organic nitrate ester ITN and PDE5 inhibitors sildenafil or vardenafil ([3]; HTMC, FIG. 3A and FIG. 3B) | concentration equipotent to ITN & Vardenafil to elevate cGMP in HTMC ([3]; equipotent to 1 μM ITN & 1 μM Vardenafil) | concentration equipotent to ITN & Vardenafil to elevate cGMP in HTMC ([3]; equipotent to 10 μM ITN & 1 μM Vardenafil) | concentration equipotent to ITN & Sildenafil to elevate cGMP in HTMC ([3]; first value of pair 10.6 nM/50.8 nM, printed against 10 μM ITN & 1 μM Sildenafil) | concentration equipotent to ITN & Sildenafil to elevate cGMP in HTMC ([3]; second value of pair 10.6 nM/50.8 nM, equipotent to 10 μM ITN & 1 μM Sildenafil)
CCCc1nn(C)c2c(=O)[nH]c(-c3cc(S(=O)(=O)N4CCC([C@@H](O)CO[N+](=O)[O-])CC4)ccc3OCC)nc12 [Compound 1c, (R)-2-(1-((4-ethoxy-3-(1-methyl-7-oxo-3-propyl-6,7-dihydro-1H-pyrazolo[4,3-d]pyrimidin-5-yl)phenyl)sulfonyl)piperidin-4-yl)-2-hydroxyethyl nitrate] | 1000 pM | 0.0118 | 0.0118 | 25.1 nM | 61.9 | 1300 nM | 3.47 | 26.1 | 33.3 nM | significantly higher efficacy |  |  |  |  |  | 
CCCc1nc(C)c2c(=O)[nH]c(-c3cc(S(=O)(=O)N4CCC([C@H](CO[N+](=O)[O-])O[N+](=O)[O-])CC4)ccc3OCC)nn12 [Compound 2a, (R)-1-(1-((4-ethoxy-3-(5-methyl-4-oxo-7-propyl-3,4-dihydroimidazo[5,1-f][1,2,4]triazin-2-yl)phenyl)sulfonyl)piperidin-4-yl)ethane-1,2-diyl dinitrate] | 420 pM |  | 0.002 | 4.2 nM | 101.7 | 293 nM | 10.58 | 152.5 | 3.3 nM | significantly higher efficacy | 99.80% | over-additive effects | 2.6 nM | 12.4 nM | 10.6 nM | 50.8 nM
